According to ChEMBL document CHEMBL1201862, “PubChem BioAssay data set” (2004):
Calls of active or inactive are those of the source.

Key:
[1] = THP-1 cell cytotoxicity, dose response, cytotoxicity control for Vif-APOBEC3G degradation inhibitor project, THP-1 cells (AID 1117359); type: functional; settings: Human immunodeficiency virus 1, THP-1
[2] = inhibitors of Vif binding to APOBEC3G peptide, primary screen, biochemical, TR-FRET, GST-Vif 1-94, biotin-A3G peptide, dose response retest (AID 1117319); type: functional;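 note: TR-FRET signal of purified GST-Vif binding a biotinylated A3G peptide; inhibitors lower the FRET signal by blocking Vif and A3G binding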
Leucine aminopeptidase = biological target: T1, Leucine aminopeptidase (Plasmodium falciparum 3D7, UniProt Q8IL11); test: P. falciparum M17LAP inhibitors, primary screen, biochemical, fluorogenic H-Leu-NHMec substrate, 1536-well (AID 1619); type: functional
T1 sequence (Q8IL11 whole entry): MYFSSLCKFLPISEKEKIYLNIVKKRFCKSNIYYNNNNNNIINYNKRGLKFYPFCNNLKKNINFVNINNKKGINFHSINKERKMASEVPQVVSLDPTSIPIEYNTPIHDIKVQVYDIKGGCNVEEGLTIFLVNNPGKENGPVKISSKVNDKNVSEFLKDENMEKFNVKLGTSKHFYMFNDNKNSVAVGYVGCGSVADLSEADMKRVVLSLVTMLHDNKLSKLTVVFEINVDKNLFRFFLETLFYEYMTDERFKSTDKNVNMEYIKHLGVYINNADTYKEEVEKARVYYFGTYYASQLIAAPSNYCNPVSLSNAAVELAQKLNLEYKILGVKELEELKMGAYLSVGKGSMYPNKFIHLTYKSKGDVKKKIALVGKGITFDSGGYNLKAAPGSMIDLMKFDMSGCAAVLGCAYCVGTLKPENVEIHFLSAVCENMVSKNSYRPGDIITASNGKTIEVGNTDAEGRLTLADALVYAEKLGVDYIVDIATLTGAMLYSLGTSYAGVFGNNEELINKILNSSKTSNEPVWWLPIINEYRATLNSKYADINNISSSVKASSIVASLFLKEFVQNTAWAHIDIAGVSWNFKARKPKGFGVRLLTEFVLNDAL

[3] = biological target: T2, Mannose-6-phosphate isomerase (Homo sapiens, UniProt P34949); test: human PMI inhibitors, high substrate, primary screen, biochemical, fluorescence intensity, high mannose 6-phosphate (AID 1220)
T2 sequence (P34949 whole entry): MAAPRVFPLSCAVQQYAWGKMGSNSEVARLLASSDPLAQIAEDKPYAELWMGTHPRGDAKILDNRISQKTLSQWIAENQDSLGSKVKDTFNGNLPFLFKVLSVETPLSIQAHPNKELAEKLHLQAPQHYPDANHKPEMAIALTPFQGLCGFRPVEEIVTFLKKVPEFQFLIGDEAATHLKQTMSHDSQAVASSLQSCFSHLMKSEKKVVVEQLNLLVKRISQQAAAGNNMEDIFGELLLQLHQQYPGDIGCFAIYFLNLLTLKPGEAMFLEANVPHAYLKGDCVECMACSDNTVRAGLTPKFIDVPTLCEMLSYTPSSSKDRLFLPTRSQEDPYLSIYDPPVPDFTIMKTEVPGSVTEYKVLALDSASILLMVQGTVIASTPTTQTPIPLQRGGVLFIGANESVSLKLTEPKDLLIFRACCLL

[4] = biological target: T3, Rac GTPase-activating protein 1 (Homo sapiens, UniProt Q9H0H5); test: MgcRacGAP GTPase-activating activity inhibitors, confirmation, biochemical, ADP Hunter fluorescence, primary and confirmatory (AID 624330); type: functional
T3 sequence (Q9H0H5 whole entry): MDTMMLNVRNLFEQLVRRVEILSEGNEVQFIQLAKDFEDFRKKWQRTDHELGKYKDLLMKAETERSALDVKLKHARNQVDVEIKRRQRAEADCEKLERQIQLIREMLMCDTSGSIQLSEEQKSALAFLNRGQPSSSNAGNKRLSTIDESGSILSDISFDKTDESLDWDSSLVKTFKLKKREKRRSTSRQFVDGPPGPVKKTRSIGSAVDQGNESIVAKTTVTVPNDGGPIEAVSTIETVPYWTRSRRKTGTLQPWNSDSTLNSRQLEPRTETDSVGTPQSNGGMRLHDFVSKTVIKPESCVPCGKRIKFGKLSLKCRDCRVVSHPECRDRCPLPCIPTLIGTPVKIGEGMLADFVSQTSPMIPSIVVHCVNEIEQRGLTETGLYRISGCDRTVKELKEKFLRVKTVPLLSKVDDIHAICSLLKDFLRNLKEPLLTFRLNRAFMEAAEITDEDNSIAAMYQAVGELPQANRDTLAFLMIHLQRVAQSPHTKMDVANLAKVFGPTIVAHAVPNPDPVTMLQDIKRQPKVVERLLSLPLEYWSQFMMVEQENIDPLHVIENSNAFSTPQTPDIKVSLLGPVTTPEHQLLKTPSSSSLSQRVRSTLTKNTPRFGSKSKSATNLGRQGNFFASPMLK

HEK293 = test: cells; type: functional, cell-based; settings: Homo sapiens
[5] = biological target: T4, Nuclear receptor subfamily 0 group B member 1 (Homo sapiens, UniProt P51843); test: Luminescence-based cell-based high throughput dose response assay for inhibitors of the orphan nuclear receptor subfamily 0, group B, member 1 (DAX1; NR0B1). [Related pubchem assays (depositor defined):AID504766, AID504790]; type: functional
T4 sequence (P51843 whole entry): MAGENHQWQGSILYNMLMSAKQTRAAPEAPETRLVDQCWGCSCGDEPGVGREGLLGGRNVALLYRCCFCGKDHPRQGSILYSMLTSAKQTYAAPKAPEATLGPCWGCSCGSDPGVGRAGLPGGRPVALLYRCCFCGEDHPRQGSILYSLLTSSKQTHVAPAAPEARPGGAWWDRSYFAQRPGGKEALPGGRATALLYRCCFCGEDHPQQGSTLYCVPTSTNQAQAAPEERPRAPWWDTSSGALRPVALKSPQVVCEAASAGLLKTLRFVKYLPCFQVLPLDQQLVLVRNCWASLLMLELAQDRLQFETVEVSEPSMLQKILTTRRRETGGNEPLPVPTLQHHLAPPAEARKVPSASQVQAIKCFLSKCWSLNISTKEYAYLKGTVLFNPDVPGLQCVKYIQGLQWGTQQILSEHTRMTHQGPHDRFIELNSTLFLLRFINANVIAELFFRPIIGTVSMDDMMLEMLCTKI

[6] = HEp-2 cell cytotoxicity, dose response, cytotoxicity control for RSV inhibitor project, HTS (AID 2410); type: functional; settings: human respiratory syncytial virus
[7] = biological target: Disintegrin and metalloproteinase domain-containing protein 17 (Homo sapiens, UniProt P78536); test: exosite inhibitors of ADAM17, dose response, biochemical (AID 743260)
[8] = ADAM10 protease inhibitors, dose response, selectivity assay for ADAM17 exosite inhibitor project, biochemical, FRET peptide substrate, recombinant human ADAM10 (AID 743259);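 note: ADAM10 enzyme cleaving a FRET peptide substrate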
[9] = growth suppression of PTEN-null colon cells, dose response, cell-based, HCT116 PTEN knockout (AID 1047); type: functional;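 note: HCT116 colon tumor cells with PTEN knocked out; cells exposed to compound for 60 hours before readout; potency for loss of cell viability measured by luminescence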
[10] = growth suppression of beta-catenin-knockout colon cells, dose response, cell-based, HCT116, human colon tumor (AID 1045); type: functional;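 note: HCT116 colon tumor cells with beta catenin knocked out; cells exposed to compound for 60 hours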
[11] = THP-1 cell cytotoxicity, dose response, cytotoxicity control for non-replicating M. tuberculosis project (AID 489025); type: functional
[12] = Vero E6 cell cytotoxicity, dose response, cytotoxicity control for non-replicating M. tuberculosis project, secondary assay (AID 492998); type: functional, VeroE6; settings: Vero C1008
cells = type: functional
[13] = microbe, parasite or virus in culture; type: functional; settings: Mycobacterium tuberculosis

Sequence of Disintegrin and metalloproteinase domain-containing protein 17 (P78536 whole entry, the tested form may be a part): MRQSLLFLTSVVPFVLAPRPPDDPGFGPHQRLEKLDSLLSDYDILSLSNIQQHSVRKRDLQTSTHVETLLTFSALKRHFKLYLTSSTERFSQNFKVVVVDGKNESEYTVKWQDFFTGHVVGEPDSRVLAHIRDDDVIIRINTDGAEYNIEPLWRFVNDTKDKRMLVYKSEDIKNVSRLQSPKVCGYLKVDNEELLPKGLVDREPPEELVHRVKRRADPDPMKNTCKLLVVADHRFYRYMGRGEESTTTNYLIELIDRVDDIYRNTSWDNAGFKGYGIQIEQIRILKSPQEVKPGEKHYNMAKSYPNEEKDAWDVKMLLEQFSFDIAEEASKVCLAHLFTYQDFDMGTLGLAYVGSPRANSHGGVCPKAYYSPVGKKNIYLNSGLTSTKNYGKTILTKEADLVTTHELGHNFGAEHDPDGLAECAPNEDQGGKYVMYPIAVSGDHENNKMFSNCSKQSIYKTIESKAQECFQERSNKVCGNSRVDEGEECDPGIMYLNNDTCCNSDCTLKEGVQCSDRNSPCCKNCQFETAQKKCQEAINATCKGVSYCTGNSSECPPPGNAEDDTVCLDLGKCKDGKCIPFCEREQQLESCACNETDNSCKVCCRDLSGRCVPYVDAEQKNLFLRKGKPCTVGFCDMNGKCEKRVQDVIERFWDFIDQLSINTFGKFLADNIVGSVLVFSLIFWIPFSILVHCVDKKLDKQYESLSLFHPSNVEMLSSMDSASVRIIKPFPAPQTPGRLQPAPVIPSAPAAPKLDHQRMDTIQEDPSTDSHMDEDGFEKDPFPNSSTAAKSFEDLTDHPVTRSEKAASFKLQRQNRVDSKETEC

For `COc1ccc(NC(=O)/C(C#N)=C/c2ccc(Sc3nncn3C)c([N+](=O)[O-])c2)cc1`, the CC50 [1] was > 40 µM (active) and the IC50 [2] was > 100 µM (active).

With `Cc1cc(=O)c2c(O)c(O)ccc2o1` the IC50 (Leucine aminopeptidase) was 110 µM (active), the IC50 [3] was > 50 µM (not active) and the IC50 [4] was 32.2 µM (active). For the same compound, the IC50 [2] was > 100 µM (active).

For `C#CCOC(=O)C[N+](C)(C)CC#Cc1ccccc1`, the IC50 (HEK293) was > 67.6 µM (inactive) and the IC50 [5] was > 67.6 µM (inactive).

For `O=C(COC(=O)Cc1ccc(Cl)cc1)NCc1ccco1`, the CC50 [1] was > 40 µM (active).

With `Cc1ccccc1-c1nc(S(=O)(=O)c2ccc(Br)cc2)c(NCc2cccnc2)o1` the CC50 [6] was 21.9 µM (active), the IC50 [7] was > 69.5 µM (inactive) and the IC50 [8] was > 69.5 µM (inactive).

With `COc1ccc(NC(=O)CSc2nnc(C)n2Cc2ccccc2)cc1` the IC50 [2] was > 12.5 µM (active).

For `Cc1cc(NC(=O)C2CCCCC2)n(-c2nc3ccccc3[nH]2)n1`, the EC50 [9] was 16.9 µM (active), the EC50 [10] was 13.6 µM (active) and the CC50 [11] was > 40 µM (active). The CC50 [12] was > 20 µM (active) and the IC50 (cells) was 5.56 µM (active).

With `O=C(CCN1C(=O)/C(=C/c2ccccc2Cl)SC1=S)N1CCCC1` the CC50 [13] was 8.2 µM (active), the CC50 [11] was 19.7 µM (active) and the CC50 [12] was 11.4 µM (active). The IC50 (cells) was 28.4 µM (active).
